Results on two molecules are retold here after PMC12062022, “Chromene flavanones from Dalea boliviana as xanthine oxidase inhibitors: in vitro biological evaluation and molecular docking studies” (Frontiers in Pharmacology, 2025).

This test deals with T1, xanthine oxidase (Bos taurus, UniProt P80457).
T1 construct: gene XDH
In words: spectrophotometric assay of uric acid formation at […] nm, bovine milk enzyme. Type of test: biochemical. Particulars: read-out: IC50 (nM) ± SEM.

T1 sequence (P80457 2-1332): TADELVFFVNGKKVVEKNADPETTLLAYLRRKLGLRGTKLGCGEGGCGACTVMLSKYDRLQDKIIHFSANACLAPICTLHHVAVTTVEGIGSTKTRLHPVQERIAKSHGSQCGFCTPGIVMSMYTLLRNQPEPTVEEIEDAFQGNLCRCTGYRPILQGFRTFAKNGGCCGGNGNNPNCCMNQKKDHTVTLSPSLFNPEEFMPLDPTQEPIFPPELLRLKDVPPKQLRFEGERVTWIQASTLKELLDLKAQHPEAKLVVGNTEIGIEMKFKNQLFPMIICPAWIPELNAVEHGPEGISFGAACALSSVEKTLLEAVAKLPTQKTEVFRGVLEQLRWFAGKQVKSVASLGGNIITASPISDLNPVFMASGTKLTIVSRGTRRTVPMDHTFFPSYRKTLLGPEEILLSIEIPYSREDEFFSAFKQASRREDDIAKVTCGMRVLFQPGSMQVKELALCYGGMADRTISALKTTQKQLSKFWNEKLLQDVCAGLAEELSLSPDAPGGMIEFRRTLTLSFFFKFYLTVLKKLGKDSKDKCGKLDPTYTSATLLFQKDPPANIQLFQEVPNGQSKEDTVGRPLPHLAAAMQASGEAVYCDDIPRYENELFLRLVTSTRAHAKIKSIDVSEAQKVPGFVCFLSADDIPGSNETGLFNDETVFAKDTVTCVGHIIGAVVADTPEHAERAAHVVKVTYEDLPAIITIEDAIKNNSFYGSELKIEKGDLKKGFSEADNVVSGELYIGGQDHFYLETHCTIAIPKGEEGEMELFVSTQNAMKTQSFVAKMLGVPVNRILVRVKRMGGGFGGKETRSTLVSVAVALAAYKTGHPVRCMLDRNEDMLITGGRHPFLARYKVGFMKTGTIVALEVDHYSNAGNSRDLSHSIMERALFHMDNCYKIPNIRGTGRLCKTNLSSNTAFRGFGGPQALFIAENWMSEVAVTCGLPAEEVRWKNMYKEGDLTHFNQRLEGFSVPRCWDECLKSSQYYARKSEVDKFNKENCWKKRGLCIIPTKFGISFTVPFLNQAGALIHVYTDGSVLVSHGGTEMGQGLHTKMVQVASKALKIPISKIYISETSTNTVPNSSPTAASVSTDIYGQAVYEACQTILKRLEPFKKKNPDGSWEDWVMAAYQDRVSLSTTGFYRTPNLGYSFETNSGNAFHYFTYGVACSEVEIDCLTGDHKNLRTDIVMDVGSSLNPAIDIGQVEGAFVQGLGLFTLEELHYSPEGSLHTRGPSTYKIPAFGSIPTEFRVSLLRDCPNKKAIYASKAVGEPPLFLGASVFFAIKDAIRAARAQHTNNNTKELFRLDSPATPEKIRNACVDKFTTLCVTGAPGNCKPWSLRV

For orientation: IC50 means the concentration that gives 50% inhibition. Take `CC1(C)C=Cc2c(cc(O)c3c2OC(c2ccccc2O)CC3=O)O1` (stereo in doubt) [compound 1, (2S) 5,2′-dihydroxy-6″,6″-dimethylchromeno-(7,8:2″,3″)-flavanone]: the IC50 is 0.5 nM.

In the case of `CC(C)=CCc1cccc(C2CC(=O)c3c(O)cc4c(c3O2)C=CC(C)(C)O4)c1O` (stereo in doubt) [compound 2, (2S) 5,2′-dihydroxy-6″,6″-dimethylchromeno-(7,8:2″,3″)-3′-prenylflavanone], the IC50 was determined as 1.7 nM.
